Results: paper PMC7693184 (Angewandte Chemie (International Ed. in English), 2020)

Target: T1, BtuR (ATP:Co(I)rrinoid adenosyltransferase) (Brucella melitensis, UniProt Q8YHV0)
T1 construct: gene BMEI0696
Conditions: excess cob(I)alamin as corrinoid substrate; inhibitor 5 μM; not a substrate itself

T1 sequence (Q8YHV0 1-189): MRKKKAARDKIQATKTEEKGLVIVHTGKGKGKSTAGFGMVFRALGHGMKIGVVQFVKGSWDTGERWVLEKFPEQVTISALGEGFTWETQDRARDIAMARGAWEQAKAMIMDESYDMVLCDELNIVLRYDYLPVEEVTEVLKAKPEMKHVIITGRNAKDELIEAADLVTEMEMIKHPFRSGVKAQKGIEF

nibalamin [Nibl]
% inhibition at 5 μM: 60%
